Assay results from PubChem BioAssay AID2423 (Broad Institute, 2010).
Results filed as inconclusive are left out. Calls of active or inactive are those of the source. How the calls were made is not given here.

The molecules below were run on C. albicans CaCi-8 + fluconazole, Alamar Blue growth, 48 h (assay: resistant C. albicans growth inhibition with fluconazole, dose response, CaCi-8 strain, Alamar Blue fluorescence (AID 2423)).

Point of comparison: `COc1ccc(-n2c(=O)c3c4c(sc3n3c(=S)[nH]nc23)CCCC4)cc1`, EC50 0.744 µM. Against it:
- COc1ccc(/C=C(/NC(=O)c2ccccc2)c2nc3ccc(Cl)cc3[nH]2)cc1OC — 3.6-fold higher, 2.66 µM
- Cc1cc(=O)oc2cc(Oc3ccc([N+](=O)[O-])cc3[N+](=O)[O-])ccc12 — within 1.5-fold, 0.652 µM
- O=C(COc1ccc(Cl)cc1Cl)N1CCCN(C(=O)COc2ccc(Cl)cc2Cl)CC1 — 2-fold higher, 1.48 µM
- O=C(CC(=O)c1cccc([N+](=O)[O-])c1)Nc1ccccc1Cl — within 1.5-fold, 0.954 µM
- C=CCOc1ccc(/C=C2\SC(=S)N(NS(=O)(=O)c3ccc(C)cc3)C2=O)cc1 — 4.4-fold higher, 3.29 µM
- O=C(N/N=C\c1c(O)ccc2ccccc12)c1cncc(Br)c1 — within 1.5-fold, 0.689 µM
- CC(=O)O/N=C/c1c(N2CCOCC2)n(C)c2ccccc12 — 1.8-fold lower, 0.403 µM
- Cc1ccnc(Sc2ccc([N+](=O)[O-])cc2[N+](=O)[O-])n1 — within 1.5-fold, 0.964 µM
- CCN(CC)c1ccc(/C=N/NC(=O)c2ccco2)c(O)c1 — 3.3-fold higher, 2.42 µM
- Cc1ccc(S(=O)(=O)/N=C2/NC(=O)/C(=C\c3cc(Br)cc(Br)c3O)S2)cc1 — 13-fold higher, 9.68 µM
- O=S(=O)(Nc1nc2ccccc2s1)c1ccc(Br)s1 — 2.3-fold higher, 1.73 µM
- COc1ccc(-c2n(CC(=O)OC3CC(C)CCC3C(C)C)c3ccccc3[n+]2C)cc1 (centres undefined) — 2-fold lower, 0.365 µM
- O=C(N/N=C/c1cc([N+](=O)[O-])ccc1O)c1ccc(COc2ccc3c(c2)CCC3)o1 — within 1.5-fold, 0.915 µM
- Oc1c(C(Nc2nccs2)c2ccc(C(F)(F)F)cc2)ccc2cccnc12 (centres undefined) — within 1.5-fold, 0.601 µM
- CCCCC(=O)NNC(=S)NC(=O)C(c1ccccc1)c1ccccc1 — 2.3-fold higher, 1.72 µM
- Cc1cc(C)n(-c2nc3ccccc3c(=O)n2OCC#N)n1 — 1.6-fold lower, 0.456 µM
- O=[N+]([O-])c1ccc(O)c(/C=N/NC(=S)Nc2ccc(Cl)cc2Cl)c1 — 2.5-fold higher, 1.87 µM
- Cc1ccsc1C(=O)OCC(=O)Nc1nnc(-c2ccccc2)o1 — 4.2-fold higher, 3.12 µM
- COc1ccc(C2C(C#N)=C(N)Oc3c2ccc2cccnc32)cc1OC (centres undefined) — within 1.5-fold, 0.952 µM
- CO/N=C/c1ccc(N2CCN(C(=O)c3ccc(C)cc3)CC2)c([N+](=O)[O-])c1 — 2.8-fold higher, 2.1 µM
- O=C(COS(=O)c1ccccc1)Nc1cc(Cl)ccc1N1CCOCC1 (centres undefined) — 4.2-fold higher, 3.11 µM
- CN(C)S(=O)(=O)c1cccc(NC(=S)N/N=C/c2ccc(O)c(O)c2O)c1 — 3.6-fold higher, 2.67 µM
- Cc1ccc(NC(=O)c2sc3nc(N)c(C#N)cc3c2N)cc1 — within 1.5-fold, 0.625 µM
- CC1CCC(C(=O)c2c(O)c3ccccc3oc2=O)CC1 (centres undefined) — 3.9-fold higher, 2.9 µM
- O=[N+]([O-])c1c(C(Cl)Cl)nn(-c2ccc(Cl)cc2)c1N1CCCCC1 — 1.7-fold lower, 0.441 µM
- NS(=O)(=O)c1ccc(N=Nc2ccc(O)c3ncccc23)cc1 — 1.9-fold higher, 1.38 µM
- CCN1/C(=C/c2cccc[n+]2C)Sc2ccc(OC)cc21 — 14-fold higher, 10.7 µM
- O=C(c1ccc(C(=O)N2CCCc3ccccc32)s1)N1CCCc2ccccc21 — 4-fold higher, 2.99 µM
- CCCCC(=O)NC(c1ccc(Cl)cc1Cl)c1ccc2cccnc2c1O (centres undefined) — 1.8-fold lower, 0.407 µM
- Clc1ccc(CONc2ncnc3nonc23)c(Cl)c1 — 2.3-fold lower, 0.328 µM
- Cc1c(Cc2ccccc2)c(=O)oc2c(O)c(O)ccc12 — 3.7-fold higher, 2.75 µM
- Cc1ccc(-n2[nH]c(C)c(/C=N/NC(=O)c3ccc([N+](=O)[O-])cc3)c2=O)c(C)c1 — 4.7-fold higher, 3.53 µM
- Cc1[nH]n(-c2ccccc2)c(=O)c1/C=N/Nc1nncc(-c2ccccc2)n1 — 3.6-fold higher, 2.67 µM
- COc1cccc(/C=N/Nc2ccc([N+](=O)[O-])cn2)c1O — 2-fold higher, 1.5 µM
- O=C(NCc1ccc(F)cc1)C(c1ccccc1)N(CC1CCCO1)C(=O)Cn1nnc2ccccc21 (centres undefined) — 1.6-fold higher, 1.16 µM
- O=c1c2ccccc2nc(-c2ccc(Cl)cc2Cl)n1O — within 1.5-fold, 1.02 µM
- CN1/C(=C\C(=O)C[n+]2ccc(C(=O)c3ccccc3)cc2)C(C)(C)c2ccccc21 — 5.5-fold higher, 4.06 µM
- Oc1cccc(C(Nc2nccs2)c2ccc3cccnc3c2O)c1 (centres undefined) — 1.9-fold higher, 1.39 µM
- CCN(c1ccccc1)S(=O)(=O)c1ccc(C(=O)Nc2nnc(C3CC3)o2)cc1 — 3-fold higher, 2.22 µM
- CCOC(=O)c1cnc2ccc(C)cc2c1Nc1ccc(N2CCOCC2)cc1 — within 1.5-fold, 1.1 µM
- Cn1c(=O)c(C(=O)NCCc2ccccc2)c(O)c2ccccc21 — 17-fold higher, 13 µM
- COc1ccc(C2=NN(c3nc4ccccc4s3)C(=O)C2)cc1 — 7.6-fold higher, 5.66 µM
- CC(C)(C)c1ccc(CSc2cnn(C(C)(C)C)c(=O)c2Cl)cc1 — 2.3-fold lower, 0.324 µM
- CC(Oc1cc2oc(=O)c3c(c2cc1Cl)CCCC3)C(=O)NCc1ccncc1 (centres undefined) — 8.9-fold higher, 6.61 µM
- CCCOc1cccc(C(=O)Nc2cccnc2)c1 — 3-fold higher, 2.21 µM
- Cc1ccc(/C=N/NC(=O)c2c(-c3ccccc3)noc2C)c(O)c1 — 8.3-fold higher, 6.16 µM
- O=C(NCCCc1ccccc1)Nc1cccc(Cl)c1 — 15-fold higher, 11.2 µM
- O=C(NC(=S)NNC(=O)[C@H]1C[C@@H]1c1ccccc1)c1cccc(F)c1 — 3.4-fold higher, 2.56 µM
- Nc1nn2cc(-c3ccc(Br)cc3)nc2c2ccccc12 — within 1.5-fold, 0.962 µM
- COc1ccc(-n2cccc2/C=C2\C(=N)N3N=C(C(C)C)SC3=NC2=O)cc1 — 22-fold higher, 16.3 µM
- O=C(/C=C\c1ccc(-c2cccc([N+](=O)[O-])c2)o1)N1CCOCC1 — 4.2-fold higher, 3.1 µM
- CCOC(=O)C(CC)/C(C)=N\NC(=O)c1ccccc1O (centres undefined) — 11-fold higher, 7.82 µM
- Cc1cccc(C)c1OCC(=O)NNC(=S)NC(=O)C1CC1 — within 1.5-fold, 0.95 µM
- CCCNC(=O)c1ccc2c(=O)c(O)c(-c3ccc(OC)cc3)[nH]c2c1 — 3.3-fold higher, 2.47 µM
- Cc1n[nH]c(=S)n(NC(=O)CC(=O)Nn2c(=S)[nH]nc(C)c2=O)c1=O — lower, < 0.12 µM
- CCCC(=O)NC(c1ccc(C(C)C)cc1)c1ccc2cccnc2c1O (centres undefined) — within 1.5-fold, 0.659 µM
- OCc1ccc(O)c2ncccc12 — 17-fold higher, 12.4 µM
- O=C(Nc1nc2ccc(S(=O)(=O)N3CCCCC3)cc2s1)c1ccncc1 — within 1.5-fold, 1.04 µM
- CCOc1ccc2nc(N3C(=O)/C(=C/c4ccccc4)NC3=S)sc2c1 — 1.9-fold higher, 1.41 µM
- COc1ccc(OC)c2[nH]c(C(=O)N/N=C/c3ccccc3O)cc12 — within 1.5-fold, 0.914 µM
- O=C(N/N=C/c1ccccc1O)c1cccc(C(F)(F)F)c1 — 2.5-fold higher, 1.84 µM
- CCN(Cc1ccccc1)S(=O)(=O)c1ccc(C(=O)Nc2nnc(-c3ccccc3OC)o2)cc1 — lower, < 0.12 µM
- Cc1[nH]n(-c2cccc3ccccc23)c(=O)c1/C=N/NC(=O)c1cccc([N+](=O)[O-])c1 — 4.4-fold higher, 3.27 µM
- O=C(c1cc(-c2ccccc2)n[nH]1)N1CCc2c([nH]c3ccccc23)C1c1ccccn1 (centres undefined) — within 1.5-fold, 0.692 µM
- CCOc1cccc(-c2c(C(=O)N/N=C(\C)c3ccccn3)nnn2-c2nonc2N)c1 — 21-fold higher, 15.6 µM
- O=C(NNC(=S)NC(=O)C12CC3CC(CC(C3)C1)C2)c1ccncc1 — 6.2-fold higher, 4.64 µM
- O=C(Cc1ccccc1)Nc1nonc1NC(=O)c1ccccc1 — 1.6-fold lower, 0.477 µM
- CCCNC(=O)c1ccc2c(=O)c(O)c(-c3ccc(Cl)c([N+](=O)[O-])c3)[nH]c2c1 — 2.6-fold higher, 1.92 µM
- CCCOC(c1ccccc1)(c1ccc(C(F)(F)F)cc1)C(Oc1nc(C)cc(C)n1)C(=O)O (centres undefined) — 8.7-fold higher, 6.47 µM
- COC(=O)c1c(-c2cccs2)csc1NC(=O)c1cccnc1 — 1.7-fold higher, 1.29 µM
- CCN(CC)c1cccc(OC2=NS(=O)(=O)c3ccccc32)c1 — 15-fold higher, 11 µM
- CCN(CC)c1ccc(/C=C/c2ccc3ccc(OC)cc3[n+]2CC)cc1 — 5-fold lower, 0.149 µM
- O=C(Oc1c(CN2CCOCC2)cc(Cl)c2cccnc12)c1cccs1 — 4.6-fold higher, 3.4 µM
- Cc1nnc(N/N=C/c2ccccn2)[nH]c1=O — 3-fold higher, 2.25 µM
- O=Cc1ccc(O)c2ncccc12 — 1.9-fold higher, 1.45 µM
- Cc1ccsc1C(=O)OCC(=O)Nc1sccc1C(N)=O — within 1.5-fold, 0.866 µM
- O=C(NNC(=S)NC(=O)c1ccccc1[N+](=O)[O-])c1ccc(Cl)cc1Cl — 2.5-fold higher, 1.87 µM
- Nc1c(S(=O)(=O)c2cccc(Cl)c2)c2nc3ccccc3nc2n1/N=C/c1ccc(O)c(O)c1 — 8.7-fold higher, 6.49 µM
- Nc1nonc1C(=O)N/N=C/c1cc(Br)ccc1O — 13-fold higher, 9.34 µM

With `CCn1cc(C(=O)OCC(=O)Nc2cccc(Cl)c2Cl)c(=O)c2ccc(C)nc21` the EC50 was > 15 µM (inactive).
In the case of `COc1ccc(C(C(=O)NC2CCCCC2)N(Cc2cccs2)C(=O)Cc2c[nH]c3ccccc23)cc1` (centres undefined), the EC50 is reported as > 15 µM (inactive).
With `COc1ccc(NC(=O)NC(C)c2ccccc2)cc1` (centres undefined) the EC50 was > 16 µM (inactive).
With `C(=C\c1ccccc1)/C=N/Nc1nc(N2CCCCC2)nc(N2CCCCC2)n1` the EC50 was > 15 µM (inactive).
For `O=C1c2ccccc2NC(c2cn[nH]c2-c2ccc(Cl)cc2)N1O` (centres undefined), the EC50 was > 16 µM (inactive).
For `Cc1ccc(NS(=O)(=O)c2ccc(CCC(=O)NCCO)cc2)cc1`, the EC50 was > 15 µM (inactive).
For `O=C(Nc1nnc(-c2ccccn2)o1)c1ccc(Br)cc1`, the EC50 was > 15 µM (inactive).
`Cc1ccccc1Nc1ncccc1C(=O)N1CCOCC1` was tested, and the EC50 was > 16 µM (inactive).
With `CCCn1c(N)c(C(=O)COC(=O)c2c(C)noc2C)c(=O)n(C)c1=O` the EC50 was > 15 µM (inactive).
`O=C(C[n+]1ccccc1)N/N=C/c1cccs1` was tested, and the EC50 was > 15 µM (inactive).
For `CC12CCC(C(=O)Nc3ncc([N+](=O)[O-])s3)(OC1=O)C2(C)C` (centres undefined), the EC50 was > 16 µM (inactive).
`COc1ccnc(Oc2cccc(C(F)(F)F)c2)c1C(=O)N/C=N/OCc1ccccc1F` was tested, and the EC50 was > 15 µM (inactive).
`Cc1onc(-c2ccccc2)c1C(=O)NC(=S)NNC(=O)c1cccnc1` was tested, and the EC50 was > 16 µM (inactive).
With `Cc1ccc2nsnc2c1NC(=O)COc1ccccc1F` the EC50 was > 15 µM (inactive).
`CCCS(=O)(=O)c1nnnn1-c1cccc(OC)c1` was tested, and the EC50 was > 15 µM (inactive).
In the case of `O=S1(=O)N=C(Nc2ccc(N3CCOCC3)cc2)c2ccccc21`, the EC50 is reported as > 16 µM (inactive).
For `C[n+]1c(-c2ccccc2)c2cc(N)ccc2c2ccc(N)cc21`, the EC50 was > 16 µM (inactive).
`CNC(=O)c1ccc2c(c1)nnn2C` was tested, and the EC50 was > 15 µM (inactive).
`Cc1ccc([N+](=O)[O-])cc1-c1[nH]c(-c2ccc(O)c(O)c2)nc1-c1ccccc1` was tested, and the EC50 was > 15 µM (inactive).
In the case of `O=C(CCC(=O)Nc1ccccc1Cl)NNS(=O)(=O)c1ccc(Cl)cc1`, the EC50 is reported as > 16 µM (inactive).
In the case of `COc1ccccc1-n1c(C)cc(SC)c(C(C)=O)c1=S`, the EC50 is reported as > 15 µM (inactive).
With `CCOC(=O)N=Nc1c2ccccc2c2nc3no[nH]c3nc12` the EC50 was > 15 µM (inactive).
With `C=C(C)c1cccc(C(C)(C)NC(=O)Nc2ccc(C(N)=O)cc2)c1` the EC50 was > 15 µM (inactive).
`O=C(c1ccccc1)C(CN1CCCC1)c1ccccc1` (centres undefined) was tested, and the EC50 was > 16 µM (inactive).
In the case of `CC(=O)Nc1cccc(NC(=O)C2CCCN2C(=O)Nc2ccc(Cl)cc2)c1` (centres undefined), the EC50 is reported as > 16 µM (inactive).
For `NC(=O)CC12CC3CC(C1)CC(CC(N)=O)(C3)C2`, the EC50 was > 16 µM (inactive).
For `COc1ccc(-c2cc(-c3c(O)c(OC)c4occc4c3OC)[nH]n2)cc1`, the EC50 was > 15 µM (inactive).
For `O=C(NNC(=O)c1cc2ccccc2cc1O)c1cccs1`, the EC50 was > 15 µM (inactive).
`COc1cccc(-n2nnnc2S(C)(=O)=O)c1` was tested, and the EC50 was > 15 µM (inactive).
